Inconclusive results and toxic doses are left out. Cut-off read from the data, not from the text of the source: active = T/C of 150% or more; inactive = T/C below 125%.
System: L1210 leukemia ip in BDF1 mice, survival T/C
Test: NCI In Vivo Anticancer Drug Screen. Data for tumor model L1210 Leukemia (intraperitoneal) in B6D2F1 (BDF1) mice
Conditions: endpoint: mean survival time, higher = longer survival
How it was run: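 Mice bearing the transplanted tumor received compound or vehicle. Survival of the treated group was divided by that of the vehicle-treated control group to give the ratio.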

[1] = dose: 100.0 mg/kg/injection, schedule: Q04DX003 (ip), vehicle: Klucel (hydroxypropylcellulose) (HPC)
[2] = dose: 200.0 mg/kg/injection, schedule: Q04DX003 (ip), vehicle: Klucel (hydroxypropylcellulose) (HPC)
[3] = dose: 400.0 mg/kg/injection, schedule: Q04DX003 (ip), vehicle: Klucel (hydroxypropylcellulose) (HPC)
[4] = dose: 100.0 mg/kg/injection, schedule: Q01DX001 (ip), vehicle: Klucel (hydroxypropylcellulose) (HPC)
[5] = dose: 100.0 mg/kg/injection, schedule: Q01DX009 (ip), vehicle: Klucel (hydroxypropylcellulose) (HPC)
[6] = dose: 200.0 mg/kg/injection, schedule: Q01DX001 (ip), vehicle: Klucel (hydroxypropylcellulose) (HPC)
[7] = dose: 200.0 mg/kg/injection, schedule: Q01DX009 (ip), vehicle: Klucel (hydroxypropylcellulose) (HPC)
[8] = dose: 400.0 mg/kg/injection, schedule: Q01DX009 (ip), vehicle: Klucel (hydroxypropylcellulose) (HPC)
[9] = dose: 100.0 mg/kg/injection, schedule: Q04DX002 (ip), vehicle: Klucel (hydroxypropylcellulose) (HPC)
[10] = dose: 200.0 mg/kg/injection, schedule: Q04DX002 (ip), vehicle: Klucel (hydroxypropylcellulose) (HPC)
[11] = dose: 400.0 mg/kg/injection, schedule: Q04DX002 (ip), vehicle: Klucel (hydroxypropylcellulose) (HPC)
[12] = dose: 100.0 mg/kg/injection, schedule: Q04DX003 (ip), vehicle: saline with Tween-80
[13] = dose: 200.0 mg/kg/injection, schedule: Q01DX009 (ip), vehicle: saline with Tween-80
[14] = dose: 200.0 mg/kg/injection, schedule: Q04DX003 (ip), vehicle: saline with Tween-80
[15] = dose: 100.0 mg/kg/injection, schedule: Q01DX009 (ip), vehicle: saline with Tween-80
[16] = dose: 400.0 mg/kg/injection, schedule: Q01DX009 (ip), vehicle: saline with Tween-80
[17] = dose: 400.0 mg/kg/injection, schedule: Q04DX003 (ip), vehicle: saline with Tween-80

Measured: T/C

CS(=O)(=O)OCCN(CCOS(C)(=O)=O)c1ccc(C=Nc2cccc(Br)c2)c(Cl)c1
inactive: [1] 111 % of control | [2] 111 % of control | [3] 120 % of control

CC(C)C(COC(=O)c1ccc(N)cc1)NC1CCCCC1C (centres undefined)
inactive: dose: 75.0 mg/kg/injection, schedule: Q01DX001 (ip), vehicle: carboxymethylcellulose (CMC) 97 % of control | dose: 150.0 mg/kg/injection, schedule: Q01DX001 (ip), vehicle: carboxymethylcellulose (CMC) 95 % of control | dose: 300.0 mg/kg/injection, schedule: Q01DX001 (ip), vehicle: carboxymethylcellulose (CMC) 89 % of control

O=C(CCN1CCCCC1)c1cccc([N+](=O)[O-])c1
inactive: dose: 12.0 mg/kg/injection, schedule: Q04DX003 (ip), vehicle: saline 93 % of control | dose: 25.0 mg/kg/injection, schedule: Q01DX009 (ip), vehicle: saline 111 % of control | dose: 25.0 mg/kg/injection, schedule: Q04DX003 (ip), vehicle: saline 101 % of control | dose: 50.0 mg/kg/injection, schedule: Q01DX009 (ip), vehicle: saline 103 % of control | dose: 50.0 mg/kg/injection, schedule: Q04DX003 (ip), vehicle: saline 95 % of control | dose: 100.0 mg/kg/injection, schedule: Q01DX009 (ip), vehicle: saline 103 % of control

O=S1(=O)CC(c2cccc3ccccc23)Nc2ccccc21 (centres undefined)
inactive: [4] 97 % of control | [5] 95 % of control | [1] 95 % of control | [6] 93 % of control | [7] 95 % of control | [2] 90 % of control | dose: 400.0 mg/kg/injection, schedule: Q01DX001 (ip), vehicle: Klucel (hydroxypropylcellulose) (HPC) 89 % of control | [8] 94 % of control | [3] 97 % of control

COc1ccc2c(c1)NP(=S)(c1ccccc1)N2 (centres undefined)
inactive: dose: 50.0 mg/kg/injection, schedule: Q01DX001 (ip), vehicle: gum acacia 101 % of control | dose: 100.0 mg/kg/injection, schedule: Q01DX001 (ip), vehicle: gum acacia 91 % of control | dose: 100.0 mg/kg/injection, schedule: Q01DX009 (ip), vehicle: gum acacia 91 % of control | dose: 200.0 mg/kg/injection, schedule: Q01DX001 (ip), vehicle: gum acacia 100 % of control | dose: 200.0 mg/kg/injection, schedule: Q01DX009 (ip), vehicle: gum acacia 91 % of control | dose: 400.0 mg/kg/injection, schedule: Q01DX009 (ip), vehicle: gum acacia 91 % of control

CCc1c(N)nc(N)[nH]c1=O
inactive: dose: 44.0 mg/kg/injection, schedule: Q01DX001 (ip), vehicle: Klucel (hydroxypropylcellulose) (HPC) 102 % of control | dose: 67.0 mg/kg/injection, schedule: Q01DX001 (ip), vehicle: Klucel (hydroxypropylcellulose) (HPC) 96 % of control | [4] 98 % of control | dose: 150.0 mg/kg/injection, schedule: Q01DX001 (ip), vehicle: Klucel (hydroxypropylcellulose) (HPC) 96 % of control | [6] 104 % of control

O=C(O)C1C(C2c3ccc(O)cc3Oc3cc(O)ccc32)C2(Cl)C(Cl)=C(Cl)C1(Cl)C2(Cl)Cl (centres undefined)
inactive: dose: 100.0 mg/kg/injection, schedule: Q04DX003 (ip), vehicle: saline 100 % of control | dose: 200.0 mg/kg/injection, schedule: Q04DX003 (ip), vehicle: saline 93 % of control | dose: 400.0 mg/kg/injection, schedule: Q04DX003 (ip), vehicle: saline 94 % of control

O=C(Nc1ccccc1)Nc1ccc([N+](=O)[O-])cc1
inactive: [5] 91 % of control | dose: 100.0 mg/kg/injection, schedule: Q04DX003 (ip), vehicle: other 93 % of control | [7] 96 % of control | dose: 200.0 mg/kg/injection, schedule: Q04DX003 (ip), vehicle: other 100 % of control | [8] 86 % of control | dose: 400.0 mg/kg/injection, schedule: Q04DX003 (ip), vehicle: other 100 % of control

C[C@]12CCC(=O)C=C1CC[C@@H]1[C@@H]2[C@@H](O)C[C@@]2(C)[C@H]1CC[C@]2(O)C(=O)COC(=O)COCC(=O)O
inactive: dose: 100.0 mg/kg/injection, schedule: Q04DX003 (sc), vehicle: Klucel (hydroxypropylcellulose) (HPC) 101 % of control | dose: 200.0 mg/kg/injection, schedule: Q04DX003 (sc), vehicle: Klucel (hydroxypropylcellulose) (HPC) 102 % of control | dose: 400.0 mg/kg/injection, schedule: Q04DX003 (sc), vehicle: Klucel (hydroxypropylcellulose) (HPC) 101 % of control

Nc1cccc(-c2nc3[nH]ncc3c(=O)[nH]2)c1
inactive: dose: 25.0 mg/kg/injection, schedule: Q01DX001 (ip), vehicle: Klucel (hydroxypropylcellulose) (HPC) 100 % of control | dose: 50.0 mg/kg/injection, schedule: Q01DX001 (ip), vehicle: Klucel (hydroxypropylcellulose) (HPC) 98 % of control | [4] 93 % of control

O=C1c2ccccc2C(=O)N1c1ccccc1
inactive: [5] 98 % of control | [9] 91 % of control | [7] 98 % of control | [10] 94 % of control | [8] 95 % of control | [11] 88 % of control

CN(C)c1ccc(C(=O)/C=C/c2ccc([N+](=O)[O-])cc2)cc1
inactive: [5] 87 % of control | [7] 97 % of control | [8] 86 % of control

CCCCCCC(=O)N1CC(C)OC(C)C1 (centres undefined)
inactive: [9] 96 % of control | [10] 96 % of control

COc1cc2c3c(c1)/C(=N\N)CCN3CCC2
inactive: dose: 12.5 mg/kg/injection, schedule: Q01DX009 (ip), vehicle: saline with Tween-80 90 % of control | dose: 25.0 mg/kg/injection, schedule: Q01DX009 (ip), vehicle: saline with Tween-80 94 % of control | dose: 50.0 mg/kg/injection, schedule: Q01DX009 (ip), vehicle: saline with Tween-80 92 % of control | [12] 92 % of control | [13] 99 % of control | [14] 103 % of control

CC(=O)SCCC(=O)NCNC(=O)CCSC(C)=O
inactive: [15] 96 % of control | [12] 93 % of control | [13] 96 % of control | [14] 93 % of control | [16] 100 % of control | [17] 92 % of control

O=C1C=C(O)C(c2ccccc2)=CC1=O
inactive: dose: 100.0 mg/kg/injection, schedule: Q01DX001 (ip), vehicle: water 104 % of control | dose: 200.0 mg/kg/injection, schedule: Q01DX001 (ip), vehicle: water 119 % of control

COC(=O)C1(C)COP(=O)(Nc2ccc(Br)cc2)OC1 (centres undefined)
inactive: dose: 100.0 mg/kg/injection, schedule: Q01DX001 (ip), vehicle: saline 96 % of control | dose: 200.0 mg/kg/injection, schedule: Q01DX001 (ip), vehicle: saline 86 % of control | dose: 400.0 mg/kg/injection, schedule: Q01DX001 (ip), vehicle: saline 91 % of control

O=C(Nc1ccc(Cl)c(Cl)c1)c1ccc(Cl)cc1
inactive: dose: 100.0 mg/kg/injection, schedule: Q04DX002 (ip), vehicle: saline with Tween-80 103 % of control | dose: 200.0 mg/kg/injection, schedule: Q04DX002 (ip), vehicle: saline with Tween-80 95 % of control | dose: 400.0 mg/kg/injection, schedule: Q04DX002 (ip), vehicle: saline with Tween-80 95 % of control

O=C1C(Cc2ccccc2)C(=O)N(Cc2ccccc2)C(=O)N1Cc1ccccc1
inactive: dose: 100.0 mg/kg/injection, schedule: Q01DX001 (ip), vehicle: carboxymethylcellulose (CMC) 88 % of control | dose: 200.0 mg/kg/injection, schedule: Q01DX001 (ip), vehicle: carboxymethylcellulose (CMC) 90 % of control | dose: 400.0 mg/kg/injection, schedule: Q01DX001 (ip), vehicle: carboxymethylcellulose (CMC) 88 % of control

COc1ccccc1SC(=O)N(C)C
inactive: [15] 102 % of control | [12] 105 % of control | [13] 98 % of control | [14] 96 % of control | [16] 93 % of control | [17] 113 % of control

CCN(CC)Cc1ccccc1COC(=O)c1ccc(Br)cc1
inactive: [9] 101 % of control | [10] 108 % of control | [11] 101 % of control

O=Cc1cc(O)c(O)c(O)c1
inactive: dose: 50.0 mg/kg/injection, schedule: Q01DX001 (ip), vehicle: other 103 % of control | dose: 100.0 mg/kg/injection, schedule: Q01DX001 (ip), vehicle: other 101 % of control | dose: 200.0 mg/kg/injection, schedule: Q01DX001 (ip), vehicle: other 101 % of control | dose: 400.0 mg/kg/injection, schedule: Q01DX001 (ip), vehicle: other 104 % of control

From PubChem BioAssay AID248 (DTP/NCI, 2004)
